± gives the standard deviation of the averaged measurements.
Assays:
TIOGUANINE [1] = compound: T1, Nc1nc2[nH]cnc2c(=S)[nH]1 [TIOGUANINE]; experiment: area under dose-response curve of surviving fraction (unscaled, Aref=0) (surviving fraction x log10(nM)); higher = more resistant; conditions: exposure time: 5 days; dose range 0.5-1000 nM
Procedure, shortened: (§1)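 Tumour cell lines in 384-well plates were exposed for five days to eight inhibitor concentrations from 0.5 to 1000 nM. Viability was read by CellTiter-Glo luminescence, normalised to DMSO-only wells, in three screens per line. Dose-response survival curves were fitted to surviving fractions by 3-parameter logistic regression in the drc R package. Area under the curve is the unscaled activity area (Aref = 0) over log10 dose.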

AFATINIB [2] = compound: T2, CN(C)C/C=C/C(=O)Nc1cc2c(Nc3ccc(F)c(Cl)c3)ncnc2cc1O[C@H]1CCOC1 [AFATINIB]; experiment: as above; conditions: exposure time: 5 days; dose range 0.5-1000 nM
Procedure, shortened: as §1

MDV3100 [3] = compound: T3, CNC(=O)c1ccc(N2C(=S)N(c3ccc(C#N)c(C(F)(F)F)c3)C(=O)C2(C)C)cc1F [MDV3100]; experiment: as above; conditions: exposure time: 5 days; dose range 0.5-1000 nM
Procedure, shortened: as §1

CANERTINIB [4] = compound: T4, C=CC(=O)Nc1cc2c(Nc3ccc(F)c(Cl)c3)ncnc2cc1OCCCN1CCOCC1 [CANERTINIB]; experiment: as above; conditions: exposure time: 5 days; dose range 0.5-1000 nM
Procedure, shortened: as §1

SAPACITABINE [5] = compound: T5, CCCCCCCCCCCCCCCC(=O)Nc1ccn([C@@H]2O[C@H](CO)[C@@H](O)[C@@H]2C#N)c(=O)n1 [SAPACITABINE]; experiment: as above; conditions: exposure time: 5 days; dose range 0.5-1000 nM
Procedure, shortened: as §1

SNX-5422 [6] = compound: T6, CC1(C)CC(=O)c2c(C(F)(F)F)nn(-c3ccc(C(N)=O)c(N[C@H]4CC[C@H](OC(=O)CN)CC4)c3)c2C1 [SNX-5422]; experiment: as above; conditions: exposure time: 5 days; dose range 0.5-1000 nM
Procedure, shortened: as §1

BI-2536 [7] = compound: T7, CC[C@@H]1C(=O)N(C)c2cnc(Nc3ccc(C(=O)NC4CCN(C)CC4)cc3OC)nc2N1C1CCCC1 [BI-2536]; experiment: as above; conditions: exposure time: 5 days; dose range 0.5-1000 nM
Procedure, shortened: as §1

[8] = compound: Cn1cc(C2=Nc3cc(NC(=O)C(N)C4CCCCC4)cc4c3C2=CNNC4=O)cn1; experiment: as above; conditions: exposure time: 5 days; dose range 0.5-1000 nM
Procedure, shortened: as §1

TIOGUANINE [9] = compound: T1, TIOGUANINE; experiment: surviving fraction relative to DMSO-only wells; higher = less growth inhibition; conditions: exposure time: 5 days
Procedure, shortened: (§2)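 Log-phase tumour cells were seeded at 250–500 per well in 384-well plates and, from 24 hours after seeding, exposed continuously for five days to inhibitors at 0.5, 1, 5, 10, 50, 100, 500 and 1000 nM. Surviving fraction is CellTiter-Glo luminescence normalised to the median of DMSO-only wells. Luminescence was measured after 10 minutes at room temperature, and only lines screened three times with replicate Pearson r >0.7 and median Z' >0.3 were kept.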

AFATINIB [10] = compound: T2, AFATINIB; experiment: as above; conditions: exposure time: 5 days
Procedure, shortened: as §2

MDV3100 [11] = compound: T3, MDV3100; experiment: as above; conditions: exposure time: 5 days
Procedure, shortened: as §2

CANERTINIB [12] = compound: T4, CANERTINIB; experiment: as above; conditions: exposure time: 5 days
Procedure, shortened: as §2

SAPACITABINE [13] = compound: T5, SAPACITABINE; experiment: as above; conditions: exposure time: 5 days
Procedure, shortened: as §2

SNX-5422 [14] = compound: T6, SNX-5422; experiment: as above; conditions: exposure time: 5 days
Procedure, shortened: as §2

BI-2536 [15] = compound: T7, BI-2536; experiment: as above; conditions: exposure time: 5 days
Procedure, shortened: as §2

[16] = compound: Cn1cc(C2=Nc3cc(NC(=O)C(N)C4CCCCC4)cc4c3C2=CNNC4=O)cn1; experiment: as above; conditions: exposure time: 5 days
Procedure, shortened: as §2

## HMLE3 BREAST
TIOGUANINE [1]
  area under dose-response curve: 3.06
AFATINIB [2]
  area under dose-response curve: 3.07
MDV3100 [3]
  area under dose-response curve: 3.23
CANERTINIB [4]
  area under dose-response curve: 2.91
SAPACITABINE [5]
  area under dose-response curve: 2.03
SNX-5422 [6]
  area under dose-response curve: 1.89
BI-2536 [7]
  area under dose-response curve: 1.26
[8]
  area under dose-response curve: 2.79
TIOGUANINE [9]; 0.5 nM
  surviving fraction: 0.914 ± 0.068
TIOGUANINE [9]; 1 nM
  surviving fraction: 0.902 ± 0.015
TIOGUANINE [9]; 5 nM
  surviving fraction: 0.95 ± 0.028
TIOGUANINE [9]; 10 nM
  surviving fraction: 0.974 ± 0.019
TIOGUANINE [9]; 50 nM
  surviving fraction: 0.97 ± 0.1
TIOGUANINE [9]; 100 nM
  surviving fraction: 0.945 ± 0.072
TIOGUANINE [9]; 500 nM
  surviving fraction: 0.905 ± 0.049
TIOGUANINE [9]; 1000 nM
  surviving fraction: 0.851 ± 0.09
AFATINIB [10]; 0.5 nM
  surviving fraction: 0.989 ± 0.042
AFATINIB [10]; 1 nM
  surviving fraction: 1.02 ± 0.034
AFATINIB [10]; 5 nM
  surviving fraction: 0.993 ± 0.054
AFATINIB [10]; 10 nM
  surviving fraction: 0.904 ± 0.074
AFATINIB [10]; 50 nM
  surviving fraction: 0.905 ± 0.035
AFATINIB [10]; 100 nM
  surviving fraction: 0.946 ± 0.04
AFATINIB [10]; 500 nM
  surviving fraction: 0.842 ± 0.087
AFATINIB [10]; 1000 nM
  surviving fraction: 0.77 ± 0.021
MDV3100 [11]; 0.5 nM
  surviving fraction: 0.981 ± 0.05
MDV3100 [11]; 1 nM
  surviving fraction: 0.951 ± 0.018
MDV3100 [11]; 5 nM
  surviving fraction: 0.984 ± 0.026
MDV3100 [11]; 10 nM
  surviving fraction: 0.946 ± 0.049
MDV3100 [11]; 50 nM
  surviving fraction: 0.975 ± 0.12
MDV3100 [11]; 100 nM
  surviving fraction: 1 ± 0.09
MDV3100 [11]; 500 nM
  surviving fraction: 0.98 ± 0.058
MDV3100 [11]; 1000 nM
  surviving fraction: 1.03 ± 0.083
CANERTINIB [12]; 0.5 nM
  surviving fraction: 0.883 ± 0.0092
CANERTINIB [12]; 1 nM
  surviving fraction: 0.909 ± 0.082
CANERTINIB [12]; 5 nM
  surviving fraction: 0.891 ± 0.044
CANERTINIB [12]; 10 nM
  surviving fraction: 0.898 ± 0.018
CANERTINIB [12]; 50 nM
  surviving fraction: 0.913 ± 0.024
CANERTINIB [12]; 100 nM
  surviving fraction: 0.838 ± 0.14
CANERTINIB [12]; 500 nM
  surviving fraction: 0.847 ± 0.028
CANERTINIB [12]; 1000 nM
  surviving fraction: 0.872 ± 0.1
SAPACITABINE [13]; 0.5 nM
  surviving fraction: 0.846 ± 0.045
SAPACITABINE [13]; 1 nM
  surviving fraction: 0.738 ± 0.037
SAPACITABINE [13]; 5 nM
  surviving fraction: 0.898 ± 0.017
SAPACITABINE [13]; 10 nM
  surviving fraction: 0.244 ± 0.014
SAPACITABINE [13]; 50 nM
  surviving fraction: 0.892 ± 0.095
SAPACITABINE [13]; 100 nM
  surviving fraction: 0.67 ± 0.11
SAPACITABINE [13]; 500 nM
  surviving fraction: 0.344 ± 0.039
SAPACITABINE [13]; 1000 nM
  surviving fraction: 0.175 ± 0.0071
SNX-5422 [14]; 0.5 nM
  surviving fraction: 0.975 ± 0.02
SNX-5422 [14]; 1 nM
  surviving fraction: 1 ± 0.054
SNX-5422 [14]; 5 nM
  surviving fraction: 0.999 ± 0.074
SNX-5422 [14]; 10 nM
  surviving fraction: 1.09 ± 0.032
SNX-5422 [14]; 50 nM
  surviving fraction: 0.0933 ± 0.011
SNX-5422 [14]; 100 nM
  surviving fraction: 0.0567 ± 0.0045
SNX-5422 [14]; 500 nM
  surviving fraction: 0.0233 ± 0.0015
SNX-5422 [14]; 1000 nM
  surviving fraction: 0.027 ± 0.001
BI-2536 [15]; 0.5 nM
  surviving fraction: 1.04 ± 0.14
BI-2536 [15]; 1 nM
  surviving fraction: 1.09 ± 0.1
BI-2536 [15]; 5 nM
  surviving fraction: 0.819 ± 0.076
BI-2536 [15]; 10 nM
  surviving fraction: 0.216 ± 0.0056
BI-2536 [15]; 50 nM
  surviving fraction: 0.0467 ± 0.014
BI-2536 [15]; 100 nM
  surviving fraction: 0.0453 ± 0.015
BI-2536 [15]; 500 nM
  surviving fraction: 0.0567 ± 0.011
BI-2536 [15]; 1000 nM
  surviving fraction: 0.063 ± 0.007
[16]; 0.5 nM
  surviving fraction: 1.02 ± 0.013
[16]; 1 nM
  surviving fraction: 0.984 ± 0.069
[16]; 5 nM
  surviving fraction: 1.01 ± 0.069
[16]; 10 nM
  surviving fraction: 1.05 ± 0.1
[16]; 50 nM
  surviving fraction: 0.928 ± 0.015
[16]; 100 nM
  surviving fraction: 0.924 ± 0.05
[16]; 500 nM
  surviving fraction: 0.319 ± 0.049
[16]; 1000 nM
  surviving fraction: 0.0807 ± 0.0095
